According to ChEMBL document CHEMBL3102750 (J Med Chem, 2013):

Experiments:
Type in all cases: functional, cell-based
[1] = target: T1, Muscarinic acetylcholine receptor M1 (Rattus norvegicus, UniProt P08482); assay: Negative allosteric modulation of rat muscarinic acetylcholine receptor M1 expressed in CHO cells assessed as inhibition of acetylcholine-induced calcium mobilization incubated for 150 secs prior to acetylcholine induction by Fluo-4 AM staining-based fluorescence assay
T1 sequence (P08482 whole entry): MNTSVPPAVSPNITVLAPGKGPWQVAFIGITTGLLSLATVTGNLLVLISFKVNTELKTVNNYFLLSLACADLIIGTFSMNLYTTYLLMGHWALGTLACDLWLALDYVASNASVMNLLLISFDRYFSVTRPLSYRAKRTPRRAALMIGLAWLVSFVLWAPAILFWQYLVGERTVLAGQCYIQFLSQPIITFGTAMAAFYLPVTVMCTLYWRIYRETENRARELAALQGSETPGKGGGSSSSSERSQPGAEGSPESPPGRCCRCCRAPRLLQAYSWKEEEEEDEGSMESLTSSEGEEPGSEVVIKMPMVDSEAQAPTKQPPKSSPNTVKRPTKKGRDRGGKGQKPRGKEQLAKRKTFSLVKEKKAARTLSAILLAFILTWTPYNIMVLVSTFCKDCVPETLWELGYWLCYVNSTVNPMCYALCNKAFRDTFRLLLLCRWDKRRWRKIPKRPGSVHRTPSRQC

[2] = target: T2, Muscarinic acetylcholine receptor M2 (Rattus norvegicus, UniProt P10980); assay: Negative allosteric modulation of rat muscarinic acetylcholine receptor M2 expressed in CHO cells assessed as inhibition of acetylcholine-induced calcium mobilization incubated for 150 secs prior to acetylcholine induction by Fluo-4 AM staining-based fluorescence assay
T2 sequence (P10980 whole entry): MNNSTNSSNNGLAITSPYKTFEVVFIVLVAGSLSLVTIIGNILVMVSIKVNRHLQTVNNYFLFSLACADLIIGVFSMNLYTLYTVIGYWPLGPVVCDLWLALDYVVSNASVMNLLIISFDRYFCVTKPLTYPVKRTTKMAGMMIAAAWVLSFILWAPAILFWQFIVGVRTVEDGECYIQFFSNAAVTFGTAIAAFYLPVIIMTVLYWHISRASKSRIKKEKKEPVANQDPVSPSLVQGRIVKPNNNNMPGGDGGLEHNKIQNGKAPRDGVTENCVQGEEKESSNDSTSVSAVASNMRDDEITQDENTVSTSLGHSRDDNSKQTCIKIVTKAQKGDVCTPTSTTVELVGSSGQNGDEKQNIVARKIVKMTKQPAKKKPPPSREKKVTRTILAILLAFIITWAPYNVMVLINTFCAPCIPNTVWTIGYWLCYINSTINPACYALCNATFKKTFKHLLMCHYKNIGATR

[3] = target: T3, Muscarinic acetylcholine receptor M4 (Homo sapiens, UniProt P08173); assay: Negative allosteric modulation of human muscarinic acetylcholine receptor M4 expressed in CHO cells assessed as inhibition of acetylcholine-induced calcium mobilization incubated for 150 secs prior to acetylcholine induction by Fluo-4 AM staining-based fluorescence assay
T3 sequence (P08173 whole entry): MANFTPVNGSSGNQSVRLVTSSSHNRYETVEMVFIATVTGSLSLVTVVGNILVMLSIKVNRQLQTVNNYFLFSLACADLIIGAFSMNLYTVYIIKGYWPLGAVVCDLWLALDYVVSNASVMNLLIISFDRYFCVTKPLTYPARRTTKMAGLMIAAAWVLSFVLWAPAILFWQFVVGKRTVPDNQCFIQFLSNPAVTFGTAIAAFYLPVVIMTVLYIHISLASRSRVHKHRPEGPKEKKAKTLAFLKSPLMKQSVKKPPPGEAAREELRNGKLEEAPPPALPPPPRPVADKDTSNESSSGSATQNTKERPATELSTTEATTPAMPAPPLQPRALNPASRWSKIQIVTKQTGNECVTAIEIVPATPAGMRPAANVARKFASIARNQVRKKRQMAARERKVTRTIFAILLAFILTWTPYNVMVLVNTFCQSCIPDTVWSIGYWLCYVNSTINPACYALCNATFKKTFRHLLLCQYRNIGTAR

[4] = target: T4, Muscarinic acetylcholine receptor M4 (Rattus norvegicus, UniProt P08485); assay: Negative allosteric modulation of rat muscarinic acetylcholine receptor M4 expressed in CHO cells assessed as inhibition of acetylcholine-induced calcium mobilization incubated for 150 secs prior to acetylcholine induction by Fluo-4 AM staining-based fluorescence assay
T4 sequence (P08485 whole entry): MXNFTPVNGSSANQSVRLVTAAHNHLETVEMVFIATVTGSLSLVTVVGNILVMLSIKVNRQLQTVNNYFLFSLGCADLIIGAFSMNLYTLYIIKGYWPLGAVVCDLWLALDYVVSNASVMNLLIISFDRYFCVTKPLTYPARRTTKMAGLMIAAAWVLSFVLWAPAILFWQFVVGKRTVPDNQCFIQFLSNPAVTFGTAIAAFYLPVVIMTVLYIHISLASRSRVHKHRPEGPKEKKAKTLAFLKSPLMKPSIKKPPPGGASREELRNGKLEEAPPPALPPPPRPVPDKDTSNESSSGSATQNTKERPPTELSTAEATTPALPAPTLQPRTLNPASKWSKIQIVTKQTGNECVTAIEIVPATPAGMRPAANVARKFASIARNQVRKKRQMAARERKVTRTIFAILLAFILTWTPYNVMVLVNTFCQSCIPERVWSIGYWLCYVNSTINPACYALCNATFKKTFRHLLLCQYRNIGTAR

[5] = target: T5, Muscarinic acetylcholine receptor M2 (Homo sapiens, UniProt P08172); assay: Negative allosteric modulation of human muscarinic acetylcholine receptor M2 expressed in CHO cells assessed as inhibition of acetylcholine-induced calcium mobilization incubated for 150 secs prior to acetylcholine induction by Fluo-4 AM staining-based fluorescence assay
T5 sequence (P08172 whole entry): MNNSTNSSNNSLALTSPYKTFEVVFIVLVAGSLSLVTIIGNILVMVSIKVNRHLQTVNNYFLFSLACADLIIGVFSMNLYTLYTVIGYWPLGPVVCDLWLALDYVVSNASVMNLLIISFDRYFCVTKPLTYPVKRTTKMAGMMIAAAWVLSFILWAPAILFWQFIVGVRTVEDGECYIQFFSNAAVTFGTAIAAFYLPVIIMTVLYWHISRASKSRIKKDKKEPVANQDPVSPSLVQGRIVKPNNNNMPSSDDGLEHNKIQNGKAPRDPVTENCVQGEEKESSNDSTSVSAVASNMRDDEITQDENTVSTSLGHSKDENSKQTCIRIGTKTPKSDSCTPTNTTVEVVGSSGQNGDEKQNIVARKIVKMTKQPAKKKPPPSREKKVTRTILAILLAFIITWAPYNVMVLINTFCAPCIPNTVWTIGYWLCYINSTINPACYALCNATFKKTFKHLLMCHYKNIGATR

[6] = target: Muscarinic acetylcholine receptor M3 (Rattus norvegicus, UniProt P08483); assay: Negative allosteric modulation of rat muscarinic acetylcholine receptor M3 expressed in CHO cells assessed as inhibition of acetylcholine-induced calcium mobilization incubated for 150 secs prior to acetylcholine induction by Fluo-4 AM staining-based fluorescence assay
Sequence of Muscarinic acetylcholine receptor M3 (Rattus norvegicus, UniProt P08483) (P08483 whole entry): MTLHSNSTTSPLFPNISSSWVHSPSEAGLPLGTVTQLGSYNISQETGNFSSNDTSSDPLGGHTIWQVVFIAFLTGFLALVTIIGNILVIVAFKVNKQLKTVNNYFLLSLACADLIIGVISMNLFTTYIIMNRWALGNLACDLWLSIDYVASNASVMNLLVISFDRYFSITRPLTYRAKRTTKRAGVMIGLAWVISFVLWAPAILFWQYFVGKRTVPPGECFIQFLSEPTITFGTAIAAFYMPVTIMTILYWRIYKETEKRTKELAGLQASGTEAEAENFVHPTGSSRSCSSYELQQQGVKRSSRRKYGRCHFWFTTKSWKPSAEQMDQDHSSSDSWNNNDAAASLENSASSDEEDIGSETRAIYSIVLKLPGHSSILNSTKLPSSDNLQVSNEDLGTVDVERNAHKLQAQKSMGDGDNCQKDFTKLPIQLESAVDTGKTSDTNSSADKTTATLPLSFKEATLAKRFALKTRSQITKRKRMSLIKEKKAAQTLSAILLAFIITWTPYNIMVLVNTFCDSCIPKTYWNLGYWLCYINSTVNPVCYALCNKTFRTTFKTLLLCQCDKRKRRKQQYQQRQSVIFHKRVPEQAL

[7] = target: Muscarinic acetylcholine receptor M3 (Homo sapiens, UniProt P20309); assay: Negative allosteric modulation of human muscarinic acetylcholine receptor M3 expressed in CHO cells assessed as inhibition of acetylcholine-induced calcium mobilization incubated for 150 secs prior to acetylcholine induction by Fluo-4 AM staining-based fluorescence assay
Sequence of Muscarinic acetylcholine receptor M3 (Homo sapiens, UniProt P20309) (P20309 whole entry): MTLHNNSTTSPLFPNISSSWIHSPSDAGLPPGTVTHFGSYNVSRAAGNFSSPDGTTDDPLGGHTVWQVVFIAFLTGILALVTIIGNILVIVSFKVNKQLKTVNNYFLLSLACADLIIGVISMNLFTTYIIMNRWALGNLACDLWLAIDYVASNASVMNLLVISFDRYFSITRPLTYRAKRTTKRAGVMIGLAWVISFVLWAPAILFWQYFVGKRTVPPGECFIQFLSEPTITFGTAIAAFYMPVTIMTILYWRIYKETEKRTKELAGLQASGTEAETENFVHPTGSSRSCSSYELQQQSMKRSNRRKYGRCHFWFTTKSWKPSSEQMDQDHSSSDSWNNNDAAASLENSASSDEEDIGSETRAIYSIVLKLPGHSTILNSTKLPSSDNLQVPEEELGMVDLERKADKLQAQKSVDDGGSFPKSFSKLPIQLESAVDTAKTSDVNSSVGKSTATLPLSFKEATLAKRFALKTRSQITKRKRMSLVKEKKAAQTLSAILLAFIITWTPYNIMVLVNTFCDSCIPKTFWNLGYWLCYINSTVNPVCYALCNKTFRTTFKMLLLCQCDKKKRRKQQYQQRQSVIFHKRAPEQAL

IC50 [1] [µM] | IC50 [2] [µM] | IC50 [3] [µM] | IC50 [4] [µM] | IC50 [5] [µM] | IC50 [6] [µM] | IC50 [7] [µM] | Structure (SMILES)
> 30 | > 30 | > 30 | > 30 | > 30 | > 30 | > 30 | O=C(c1ccc(F)c(F)c1)N1CCN2C(=O)c3ccccc3[C@@]12c1ccc(Cl)cc1
> 30 | > 30 | > 30 | > 30 | > 30 | > 30 | > 30 | O=C(c1ccc(F)c(F)c1)N1CCN2C(=O)c3ccccc3C12c1ccccc1 (centres undefined)
